# Test results published in ChEMBL document CHEMBL1151381, “Aporphine Alkaloids From Annona acuminata” (1982).
# Test system: KB
# Assay: Cytotoxicity against human KB cells
# Format: functional
# Details: read-out: ED50 (the source's name)
row,SMILES,EC50 [µg/mL]
1,COc1c(OC)c2c3c(nccc3c1OC)C(=O)c1ccccc1-2 [HOMOMOSCHATOLINE],> 10
2,O=C1c2ccccc2-c2c3c(cc4ccnc1c24)OCO3 [LIRIODENINE],3.1
3,COc1cc2ccnc3c2c(c1OC)-c1ccccc1C3=O [LYSICAMINE],> 10
